Assay results from PMC5983484, “A receptor tyrosine kinase ROR1 inhibitor (KAN0439834) induced significant apoptosis of pancreatic cells which was enhanced by erlotinib and ibrutinib” (PLoS ONE, 2018).

Molecular target: ROR1 (Homo sapiens, UniProt Q01973)
Test: Western blot of pROR1 in PaCa-2 cells ([…] h), confirmed by human phospho-RTK array
Format: cell-based

ROR1, sequence (Q01973 30-937): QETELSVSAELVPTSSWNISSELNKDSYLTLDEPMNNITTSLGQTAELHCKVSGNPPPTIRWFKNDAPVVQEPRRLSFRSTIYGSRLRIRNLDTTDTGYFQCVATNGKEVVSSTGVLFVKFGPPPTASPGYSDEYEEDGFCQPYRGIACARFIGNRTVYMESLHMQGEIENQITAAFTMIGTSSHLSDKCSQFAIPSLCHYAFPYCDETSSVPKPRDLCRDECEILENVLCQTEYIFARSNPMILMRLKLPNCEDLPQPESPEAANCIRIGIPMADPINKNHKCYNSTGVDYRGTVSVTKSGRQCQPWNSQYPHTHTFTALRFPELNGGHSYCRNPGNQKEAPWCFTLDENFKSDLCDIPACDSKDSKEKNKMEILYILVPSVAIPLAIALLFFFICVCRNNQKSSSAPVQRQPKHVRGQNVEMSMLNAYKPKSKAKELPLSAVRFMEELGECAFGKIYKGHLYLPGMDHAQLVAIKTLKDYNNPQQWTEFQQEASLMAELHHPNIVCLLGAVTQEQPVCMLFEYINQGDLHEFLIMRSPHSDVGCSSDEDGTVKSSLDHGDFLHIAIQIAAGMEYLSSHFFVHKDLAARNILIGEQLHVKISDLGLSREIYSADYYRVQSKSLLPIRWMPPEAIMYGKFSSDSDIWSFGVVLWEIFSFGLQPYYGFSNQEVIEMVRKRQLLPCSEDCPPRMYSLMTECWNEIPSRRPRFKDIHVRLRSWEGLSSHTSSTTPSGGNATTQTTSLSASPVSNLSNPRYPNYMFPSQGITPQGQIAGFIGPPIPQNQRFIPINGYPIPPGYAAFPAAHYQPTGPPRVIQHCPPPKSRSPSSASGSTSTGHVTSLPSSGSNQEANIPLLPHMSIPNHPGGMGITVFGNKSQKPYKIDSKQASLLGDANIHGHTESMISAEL

IC50: < 0.1 µM
Substance: KAN0439834
